# Experimental data reported in US20250115581A1, “SUBSTITUTED PIPERIDINES AS CK1A DEGRADERS” (Monte Rosa Therapeutics, Inc., priority 2022, published 2025).
# Legend:
# [1] = system: GP2D; assay: Growth inhibition, CyQUANT Direct Cell Proliferation Assay, GP2D; type: cell-based; conditions: GP2D cells, 120 to 168 hours
# Method: (§1) SKCO1, LS180, and LS174T cell lines were purchased from ATCC. CW2 cell line was purchased from Riken. GP2D cell line was purchased from Sigma/ECACC. All cell lines were cultured in manufacturer's recommended media at 37° C., 5% CO2. Briefly, cells were suspended in 200 μL of media and seeded at 300 to 1,800 cells per well in tissue culture treated 96-well plates with black walls and clear bottom. Plates were incubated overnight and initial (TO) read was performed the following day using CyQUANT Direct Cell Proliferation Assay Kit (Thermo Fisher Scientific) according to manufacturer's protocol. All compounds were solubilized in DMSO and prepared at 3-fold serial dilution, using 9 points starting at 30 μM as highest concentration, administered to cells and incubated for 120 to 168 hours, at which point CyQUANT assay measurement was performed using Acumen Cellista instrument (Ex/Em 480/520 nm). Media-only wells were used as blank, and 0.3% DMSO was used as DMSO-treated cell control. Growth inhibition (percent response) was calculated using the following formula in Excel: “=if ([Compound treated Day N]>[Untreated Day 0, AVG], ([Compound treated Day N]− [Untreated Day 0, AVG])/([Untreated Day N]−[Untreated Day 0, AVG])*100, ([Compound Treated Day N]−[Untreated Day 0, AVG])/([Untreated Day 0, AVG])*100)”. GI50 is the response corresponding to the 50% of untreated control.
# (§2) GI50 data are reported in Tables 4a, 4b, 4c, 4d, and 4e for compounds in Table 1. In Tables 4a, 4b, 4c, 4d, and 4e below, According to the code, A represents a GI50 value of ≤0.1 μM, B represents a GI50 value >0.1 μM and ≤1 μM, C represents an GI50 value >1 μM.
# [2] = target: CRBN/DDB1 (Homo sapiens, UniProt Q96SW2); assay: HTRF binding assay (displacement of Cy5-thalidomide probe from CRBN/DDB1); conditions: CRBN/DDB1 2.5 nM, Cy5-Thalidomide 100 nM, 30 min; geometric mean; read-out: HTRF_Thali_Disp_DR_geo_IC50
# How it was run: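 HTRF displacement of Cy5-thalidomide probe (100 nM) from His-tagged CRBN/DDB1 (2.5 nM) with anti-His terbium cryptate, in HEPES/NaCl/TCEP/EDTA/Tween20 buffer; 10-point 1:3 series, 30 min at ambient temperature. 665/620 nm ratio fitted 4-parameter logistic for IC50; Ki via Cheng-Prusoff.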
# [3] = system: SKCO1; assay: Growth inhibition, CyQUANT Direct Cell Proliferation Assay, SKCO1; type: cell-based; conditions: Homo sapiens, SK-CO-1; SKCO1 cells, 120 to 168 hours
# Method: as §1, §2
# [4] = system: LS174T; assay: Growth inhibition, CyQUANT Direct Cell Proliferation Assay, LS174T; type: cell-based; conditions: Homo sapiens; LS174T cells, 120 to 168 hours
# Method: as §1, §2
# [5] = system: CW2; assay: Growth inhibition, CyQUANT Direct Cell Proliferation Assay, CW2; type: cell-based; conditions: Homo sapiens, CW-2; CW2 cells, 120 to 168 hours
# Method: as §1, §2
# [6] = system: LS180; assay: Growth inhibition, CyQUANT Direct Cell Proliferation Assay, LS180; type: cell-based; conditions: Homo sapiens; LS180 cells, 120 to 168 hours
# Method: as §1, §2
# [7] = target: T1, CK1α (Homo sapiens, UniProt P48729+Q96SW2); assay: CK1α NanoBit Assay (HiBiT-tagged CSNK1A1 in HEK293 cells, luminescence); type: cell-based; conditions: 24 h
# T1 construct: HEK293 clonal lines with CRISPR KI HiBiT tag on CSNK1A1; host or cells: HEK293 clonal line, CRISPR knock-in HiBiT at the CSNK1A1 locus, stably expressing LgBiT
# How it was run: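 HEK293 with endogenous HiBiT-tagged CSNK1A1 and stable LgBiT, live-cell Endurazine substrate; compound added at 10 or 30 μM final top concentration after 16 h plating, then 24 h at 37 °C. Luminescence normalised to plate controls; DC50 by 3-parameter logistic fit, hill slope 1.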
# T1 sequence (P48729 whole entry): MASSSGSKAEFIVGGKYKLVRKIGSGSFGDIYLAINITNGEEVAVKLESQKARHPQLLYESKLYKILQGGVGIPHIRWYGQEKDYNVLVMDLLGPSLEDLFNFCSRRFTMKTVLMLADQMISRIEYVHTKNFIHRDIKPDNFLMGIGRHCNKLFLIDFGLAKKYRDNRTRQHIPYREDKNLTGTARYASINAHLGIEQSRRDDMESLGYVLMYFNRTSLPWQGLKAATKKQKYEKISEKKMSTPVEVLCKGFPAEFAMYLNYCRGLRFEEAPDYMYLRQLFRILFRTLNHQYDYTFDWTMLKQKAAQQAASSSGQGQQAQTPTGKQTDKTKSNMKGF
# T1 sequence (Q96SW2 whole entry): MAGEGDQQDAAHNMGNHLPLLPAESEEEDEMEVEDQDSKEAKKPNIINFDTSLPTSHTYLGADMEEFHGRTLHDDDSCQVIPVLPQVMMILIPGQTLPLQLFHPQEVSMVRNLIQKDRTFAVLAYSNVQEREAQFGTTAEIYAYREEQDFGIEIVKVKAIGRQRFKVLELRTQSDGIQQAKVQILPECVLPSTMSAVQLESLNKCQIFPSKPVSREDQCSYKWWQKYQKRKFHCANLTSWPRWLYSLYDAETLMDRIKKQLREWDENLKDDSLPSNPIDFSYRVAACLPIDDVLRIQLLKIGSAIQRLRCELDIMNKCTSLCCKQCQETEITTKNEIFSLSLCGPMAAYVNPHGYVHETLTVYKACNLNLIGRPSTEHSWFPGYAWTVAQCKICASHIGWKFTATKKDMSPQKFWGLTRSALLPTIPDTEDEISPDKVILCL
# T1 sequence (Q16531 whole entry partner): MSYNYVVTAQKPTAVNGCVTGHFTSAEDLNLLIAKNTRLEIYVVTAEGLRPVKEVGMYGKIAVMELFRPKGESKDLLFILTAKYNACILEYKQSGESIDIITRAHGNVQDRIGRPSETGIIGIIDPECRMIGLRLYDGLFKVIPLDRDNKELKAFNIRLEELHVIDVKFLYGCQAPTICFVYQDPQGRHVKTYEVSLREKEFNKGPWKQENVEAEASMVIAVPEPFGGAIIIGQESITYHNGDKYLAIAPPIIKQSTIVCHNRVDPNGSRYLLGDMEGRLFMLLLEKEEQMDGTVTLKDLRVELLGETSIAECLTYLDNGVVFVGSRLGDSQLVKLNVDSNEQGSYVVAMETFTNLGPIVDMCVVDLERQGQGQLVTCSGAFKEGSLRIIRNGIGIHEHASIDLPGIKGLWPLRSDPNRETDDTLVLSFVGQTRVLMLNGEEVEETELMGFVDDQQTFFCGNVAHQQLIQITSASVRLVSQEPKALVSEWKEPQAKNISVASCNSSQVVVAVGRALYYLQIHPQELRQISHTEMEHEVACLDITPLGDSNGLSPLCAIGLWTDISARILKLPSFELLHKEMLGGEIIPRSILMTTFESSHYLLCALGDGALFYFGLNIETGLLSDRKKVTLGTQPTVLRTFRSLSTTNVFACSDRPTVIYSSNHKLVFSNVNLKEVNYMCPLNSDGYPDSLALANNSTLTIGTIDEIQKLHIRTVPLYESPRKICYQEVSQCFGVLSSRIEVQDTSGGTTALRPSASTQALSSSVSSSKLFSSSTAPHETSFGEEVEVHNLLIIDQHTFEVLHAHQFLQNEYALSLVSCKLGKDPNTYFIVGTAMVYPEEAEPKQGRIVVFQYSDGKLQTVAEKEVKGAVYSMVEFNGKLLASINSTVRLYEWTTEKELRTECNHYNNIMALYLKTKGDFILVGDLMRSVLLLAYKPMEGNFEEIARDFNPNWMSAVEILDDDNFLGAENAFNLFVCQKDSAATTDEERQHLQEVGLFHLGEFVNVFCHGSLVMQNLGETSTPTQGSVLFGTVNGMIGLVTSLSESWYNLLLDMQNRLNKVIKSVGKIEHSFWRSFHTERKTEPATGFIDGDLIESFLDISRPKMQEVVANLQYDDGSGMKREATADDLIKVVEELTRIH
# Sequence of CRBN/DDB1 (Q96SW2 whole entry): as the sequence (Q96SW2 whole entry) above
# Sequence of CRBN/DDB1 (Q16531 whole entry partner): as the sequence (Q16531 whole entry partner) above
smiles,measurement,setting,value
"Cc1ccc(N2CCN(c3ccc4c(c3)CN(C3CCC(=O)NC3=O)C4=O)C2=O)cn1 (centres unmarked) [Compound 104, 3-(5-(3-(6-methylpyridin-3-yl)-2-oxoimidazolidin-1-yl)-1-oxoisoindolin-2-yl)piperidine-2,6-dione]",GI50,[1],100 to 1000 nM
same,IC50,[2],100 to 1000 nM
same,GI50,[3],100 to 1000 nM
same,GI50,[4],100 to 1000 nM
same,GI50,[5],100 to 1000 nM
same,GI50,[6],100 to 1000 nM
same,DC50,[7],≤ 0.1 µM
"Cc1ccc(N2CCN(c3ccc4c(c3)CN(C3CCC(=O)NC3=O)C4=O)C2=O)cc1 (centres unmarked) [Compound 111, 3-(1-oxo-5-(2-oxo-3-(p-tolyl)imidazolidin-1-yl)isoindolin-2-yl) piperidine-2,6-dione]",GI50,[1],100 to 1000 nM
same,IC50,[2],100 to 1000 nM
same,GI50,[3],≤ 100 nM
same,GI50,[4],100 to 1000 nM
same,GI50,[5],≤ 100 nM
same,GI50,[6],100 to 1000 nM
same,DC50,[7],≤ 0.1 µM
"O=C1CCC(N2Cc3cc(N4CCN(c5ccc(C6CC6)cc5)C4=O)ccc3C2=O)C(=O)N1 (centres unmarked) [Compound 123, 3-(5-(3-(4-cyclopropylphenyl)-2-oxoimidazolidin-1-yl)-1-oxoisoindolin-2-yl)piperidine-2,6-dione]",GI50,[1],100 to 1000 nM
same,IC50,[2],> 1000 nM
same,GI50,[3],≤ 100 nM
same,GI50,[4],≤ 100 nM
same,GI50,[5],≤ 100 nM
same,GI50,[6],100 to 1000 nM
same,DC50,[7],≤ 0.1 µM
"O=C1CCC(N2Cc3cc(N4CCN(c5ccc(C(F)F)nc5)C4=O)ccc3C2=O)C(=O)N1 (centres unmarked) [Compound 124, 3-(5-(3-(6-(difluoromethyl)pyridin-3-yl)-2-oxoimidazolidin-1-yl)-1-oxoisoindolin-2-yl)piperidine-2,6-dione]",GI50,[1],100 to 1000 nM
same,IC50,[2],100 to 1000 nM
same,GI50,[3],100 to 1000 nM
same,GI50,[4],≤ 100 nM
same,GI50,[5],≤ 100 nM
same,GI50,[6],100 to 1000 nM
same,DC50,[7],≤ 0.1 µM
"O=C1CCC(N2Cc3cc(N4CCN(c5ccc(C(F)(F)F)nc5)C4=O)ccc3C2=O)C(=O)N1 (centres unmarked) [Compound 126, 3-(1-oxo-5-(2-oxo-3-(6-(trifluoromethyl)pyridin-3-yl)imidazolidin-1-yl)isoindolin-2-yl)piperidine-2,6-dione]",GI50,[1],100 to 1000 nM
same,IC50,[2],100 to 1000 nM
same,GI50,[3],100 to 1000 nM
same,GI50,[4],100 to 1000 nM
same,GI50,[5],≤ 100 nM
same,GI50,[6],100 to 1000 nM
same,DC50,[7],≤ 0.1 µM
"C[C@@H]1CN(c2ccc3c(c2)CN(C2CCC(=O)NC2=O)C3=O)C(=O)N1c1ccc(C2CC2)nc1 (stereo partly drawn) [Compound 137, 3-(5-((R)-3-(6-cyclopropylpyridin-3-yl)-4-methyl-2-oxoimidazolidin-1-yl)-1-oxoisoindolin-2-yl)piperidine-2,6-dione]",GI50,[1],> 1000 nM
same,IC50,[2],100 to 1000 nM
same,GI50,[3],100 to 1000 nM
same,GI50,[4],100 to 1000 nM
same,GI50,[5],100 to 1000 nM
same,GI50,[6],> 1000 nM
same,DC50,[7],≤ 0.1 µM
"COC(C)c1ccccc1N1CCN(c2ccc3c(c2)CN(C2CCC(=O)NC2=O)C3=O)C1=O (centres unmarked) [Compound 169, 3-(5-(3-(2-(1-methoxyethyl)phenyl)-2-oxoimidazolidin-1-yl)-1-oxoisoindolin-2-yl)piperidine-2,6-dione]",IC50,[2],100 to 1000 nM
same,DC50,[7],0.1 to 1 µM
"O=C1CCC(N2Cc3cc(N4CCN(c5ccc6[nH]cnc6c5)C4=O)ccc3C2=O)C(=O)N1 (centres unmarked) [Compound 170, 3-(5-(3-(1H-benzo[d]imidazol-5-yl)-2-oxoimidazolidin-1-yl)-1-oxoisoindolin-2-yl) piperidine-2,6-dione]",IC50,[2],≤ 100 nM
same,DC50,[7],0.1 to 1 µM
"O=C1CCC(N2Cc3cc(N4CCN(C5CC6(COC6)C5)C4=O)ccc3C2=O)C(=O)N1 (centres unmarked) [Compound 171, 3-(1-oxo-5-(2-oxo-3-(2-oxaspiro[3.3]heptan-6-yl)imidazolidin-1-yl)isoindolin-2-yl)piperidine-2,6-dione]",IC50,[2],100 to 1000 nM
same,DC50,[7],0.1 to 1 µM
"CN1Cc2cccc(N3CCN(c4ccc5c(c4)CN(C4CCC(=O)NC4=O)C5=O)C3=O)c2C1 (centres unmarked) [Compound 172, 3-(5-(3-(2-methylisoindolin-4-yl)-2-oxoimidazolidin-1-yl)-1-oxoisoindolin-2-yl)piperidine-2,6-dione]",IC50,[2],≤ 100 nM
same,DC50,[7],> 1 µM
"Cc1ccc(N2C(=O)N(c3ccc4c(c3)CN(C3CCC(=O)NC3=O)C4=O)C[C@H]2C(F)F)cc1 (stereo partly drawn) [Compound 173, 3-(5-((S)-4-(difluoromethyl)-2-oxo-3-(p-tolyl)imidazolidin-1-yl)-1-oxoisoindolin-2-yl)piperidine-2,6-dione]",IC50,[2],100 to 1000 nM
same,DC50,[7],> 1 µM
"O=C1CCC(N2Cc3cc(N4CCN(C5CN(c6ccccc6)C5)C4=O)ccc3C2=O)C(=O)N1 (centres unmarked) [Compound 174, 3-(1-oxo-5-(2-oxo-3-(1-phenylazetidin-3-yl)imidazolidin-1-yl)isoindolin-2-yl)piperidine-2,6-dione]",IC50,[2],100 to 1000 nM
same,DC50,[7],> 1 µM
"O=C1CCC(N2Cc3cc(N4CCN(c5cccc6nc[nH]c56)C4=O)ccc3C2=O)C(=O)N1 (centres unmarked) [Compound 175, 3-(5-(3-(1H-benzo[d]imidazol-7-yl)-2-oxoimidazolidin-1-yl)-1-oxoisoindolin-2-yl) piperidine-2,6-dione]",IC50,[2],> 1000 nM
same,DC50,[7],> 1 µM
"CN1CC(c2ccc(N3CCN(c4ccc5c(c4)CN(C4CCC(=O)NC4=O)C5=O)C3=O)cc2)C1 (centres unmarked) [Compound 176, 3-(5-(3-(4-(1-methylazetidin-3-yl)phenyl)-2-oxoimidazolidin-1-yl)-1-oxoisoindolin-2-yl)piperidine-2,6-dione]",IC50,[2],≤ 100 nM
same,DC50,[7],> 1 µM
"CN1CCCC1c1ccc(N2CCN(c3ccc4c(c3)CN(C3CCC(=O)NC3=O)C4=O)C2=O)cc1 (centres unmarked) [Compound 177, 3-(5-(3-(4-(1-methylpyrrolidin-2-yl)phenyl)-2-oxoimidazolidin-1-yl)-1-oxoisoindolin-2-yl)piperidine-2,6-dione]",IC50,[2],100 to 1000 nM
same,DC50,[7],> 1 µM
"O=C1CCC(N2Cc3cc(N4CCN(C5COC5)C4=O)ccc3C2=O)C(=O)N1 (centres unmarked) [Compound 178, 3-(5-(3-(oxetan-3-yl)-2-oxoimidazolidin-1-yl)-1-oxoisoindolin-2-yl)piperidine-2,6-dione]",IC50,[2],100 to 1000 nM
same,DC50,[7],> 1 µM
"O=C1CCC(N2Cc3cc(N4CCN(C(c5ccccc5)C(F)(F)F)C4=O)ccc3C2=O)C(=O)N1 (centres unmarked) [Compound 179, 3-(1-oxo-5-(2-oxo-3-(2,2,2-trifluoro-1-phenylethyl)imidazolidin-1-yl)isoindolin-2-yl)piperidine-2,6-dione]",IC50,[2],100 to 1000 nM
same,DC50,[7],> 1 µM
"C[C@@H]1CN(c2ccc3c(c2)CN(C2CCC(=O)NC2=O)C3=O)C(=O)N1c1ccncn1 (stereo partly drawn) [Compound 180, 3-(5-((R)-4-methyl-2-oxo-3-(pyrimidin-4-yl)imidazolidin-1-yl)-1-oxoisoindolin-2-yl)piperidine-2,6-dione]",IC50,[2],> 1000 nM
same,DC50,[7],> 1 µM
"CC(C)C(=O)c1ccc(N2CCN(c3ccc4c(c3)CN(C3CCC(=O)NC3=O)C4=O)C2=O)cc1 (centres unmarked) [Compound 181, 3-(5-(3-(4-isobutyrylphenyl)-2-oxoimidazolidin-1-yl)-1-oxoisoindolin-2-yl)piperidine-2,6-dione]",IC50,[2],≤ 100 nM
same,DC50,[7],> 1 µM
"C[C@@H]1CN(c2ccc3c(c2)CN(C2CCC(=O)NC2=O)C3=O)C(=O)N1c1ncccn1 (stereo partly drawn) [Compound 182, 3-(5-((R)-4-methyl-2-oxo-3-(pyrimidin-2-yl)imidazolidin-1-yl)-1-oxoisoindolin-2-yl)piperidine-2,6-dione]",IC50,[2],100 to 1000 nM
same,DC50,[7],> 1 µM
"O=C1CCC(N2Cc3cc(N4CCN(C5CCOCC5)C4=O)ccc3C2=O)C(=O)N1 (centres unmarked) [Compound 183, 3-(1-oxo-5-(2-oxo-3-(tetrahydro-2H-pyran-4-yl)imidazolidin-1-yl)isoindolin-2-yl)piperidine-2,6-dione]",IC50,[2],100 to 1000 nM
same,DC50,[7],> 1 µM
"O=C1CCC(N2Cc3cc(N4CCN(C5CN(c6ccccn6)C5)C4=O)ccc3C2=O)C(=O)N1 (centres unmarked) [Compound 184, 3-(1-oxo-5-(2-oxo-3-(1-(pyridin-2-yl)azetidin-3-yl)imidazolidin-1-yl)isoindolin-2-yl)piperidine-2,6-dione]",IC50,[2],100 to 1000 nM
same,DC50,[7],> 1 µM
